Test results from US6660879B2, “3-aryl-2-hydroxypropionic acid derivative I” (AstraZeneca AB, priority 1998, dated 2003).

Test system: obese diabetic mice of the Umeå ob/ob strain
Experiment: Biological activity in obese diabetic ob/ob mice (plasma glucose, insulin, triglycerides; weight gain)
Type: in vivo
Settings: gavage once daily for 7 days
Description: The biological activity of the compound of the invention was tested in obese diabetic mice of the Umea ob/ob strain. Groups of mice received the test compound by gavage once daily for 7 days. On the last day of the experiment the animals were anesthetized 2h after dose in a non-fed state and blood was collected from an incised artery. Plasma was analyzed for concentration of glucose, insulin and triglycerides. A group of untreated obese diabetic mice of the same age served as control. The weight of the mice was measured before and after the experiment and the obtained weight gain was compared to the weight gain of the control animals. The individual values for glucose, insulin and triglyceride levels of the mice from the test group were expressed as the percent rage of the corresponding values from the control group.
The desired “therapeutic effect” was calculated as the average percent reduction of the three variables glucose, insulin and triglycerides below the levels in the control animals. The therapeutic effect of the tested compounds according to the invention was compared to the same effect in the prior art compound troglitazone, administrered by gavage in the oral dose of 100 μmol/kg for 7 days.

CCO[C@@H](Cc1ccc(OCCc2ccc(OS(C)(=O)=O)cc2)cc1)C(=O)O [Example 1, (S)-2-Ethoxy-3-[4-(2-{4-methanesulfonyloxyphenyl}ethoxy)phenyl]propanoic acid]
therapeutic effect (average percent reduction of glucose, insulin and triglycerides below the levels in the control animals) (plasma 2h after last dose, non-fed, compared to troglitazone given in the same oral dose (100 μmol/kg for 7 days)): superior effects
weight gain compared to the weight gain of the control animals (weight measured before and after the experiment): without undesirable weight gain
